Values quoted from earlier work in article PMC11901578, “Polymethoxyflavones and Bone Metabolism” (Nutrients, 2025).
Where two headings read alike, the source gives them in different places.

Tests used:
[1] = test system: CIA rats; parameters: method as in PMID 31344704; settings: daily oral administration for 14 days; cited from earlier work
[2] = test system: osteoclast differentiation; parameters: method as in PMID 22850615; settings: 30 μM; cited from earlier work
[3] = test system: Raw264.7; settings: RANKL +, cited from earlier work; for IC50: read-out: IC50, osteoclast differentiation in Raw264.7 cultures
[4] = test system: rheumatoid synovial fibroblasts (RASFs); parameters: method as in doi:10.3329/bjp.v10i3.22865; settings: 50 and 100 μM; cited from earlier work
[5] = test system: HL-60 cells; parameters: method as in PMID 23225422; settings: read-out: IC50, anti-proliferative effect on HL-60 cells; cited from earlier work
[6] = test system: osteoclast differentiation in co-culture system; settings: LPS +, 30 μM; cited from earlier work
[7] = test system: alveolar bone loss in mice; settings: LPS +, cited from earlier work
[8] = test system: osteoclast differentiation in co-cultures of osteoblasts and bone marrow cells; settings: cited from earlier work; for IC50: IL-1 +, read-out: IC50, osteoclast differentiation in co-culture system; for inhibitory effect on IL-1-induced osteoclast differentiation relative to nobiletin and tangeretin, respectively: TRAP-positive osteoclasts
[9] = test system: rats with ligature-induced periodontitis; parameters: method as in PMID 38734708; settings: oral 5, 10, and 20 mg/kg/day for 3 weeks; cited from earlier work
[10] = test system: DMM-OA mice; settings: DMM-OA mice, oral 50 mg/kg/day for 8 weeks; cited from earlier work
[11] = test system: zebrafish embryos; parameters: method as in PMID 22707269; settings: 30 μM, cited from earlier work
[12] = test system: human umbilical vein endothelial cells (HUVECs); parameters: method as in PMID 22707269; settings: read-out: IC50, anti-proliferative effect on HUVECs; cited from earlier work
[13] = test system: periodontal ligament cells; parameters: method as in PMID 38734708; settings: 2.5, 5, and 10 μM; cited from earlier work
[14] = test system: BTB and CNC homology 1 (BACH1); parameters: method as in PMID 38734708; settings: cited from earlier work
[15] = test system: bone marrow macrophage (BMM) cultures; settings: 2, 10, and 50 μM; cited from earlier work
[16] = test system: human periodontal ligament cells (HPDLCs); settings: TNF-α, human periodontal ligament cells; cited from earlier work
[17] = test system: osteoclast differentiation; parameters: method as in PMID 26044862; settings: 20 μM, compared to 20 μM laricitrin and 20 μM myricetin; cited from earlier work
[18] = test system: IL-1β mRNA expression in the hippocampus; parameters: method as in PMID 25884208; settings: mice, subcutaneous 100 mg/kg; cited from earlier work
[19] = test system: bone resorption in mouse calvarial or alveolar bone organ cultures; settings: 30 μM, mouse calvarial or alveolar bone organ cultures; cited from earlier work
[20] = test system: serum TNF-α levels; parameters: method as in PMID 18816060; settings: rats, intraperitoneal 100 mg/kg; cited from earlier work

COc1ccc(-c2cc(=O)c3c(OC)c(OC)c(OC)c(OC)c3o2)cc1 [Tangeretin, 4′,5,6,7,8-Pentamethoxyflavone]
oxidative stress and inflammation [1]: reduced oxidative stress and inflammation | suppression of osteoclast differentiation induced by IL-1, LPS, or soluble RANKL (sRANKL) [2]: 70–90% | osteoclast differentiation in Raw264.7 cultures, inhibited ([3]; 30 μM): 71% inhibited [8] | IC50 [3]: 16 µM | proliferation of rheumatoid synovial fibroblasts (RASFs) [4]: significantly inhibits | IC50 [5]: 32 µM | osteoclast differentiation in co-culture system, inhibited [6]: 94% inhibited [8] | alveolar bone loss in mice, restored ([7]; 30 μg/mouse): 0% restored [8] | alveolar bone loss in mice, restored ([7]; 100 μg/mouse): 2% restored [8] | alveolar bone loss in mice, restored ([7]; 500 μg/mouse): 4% restored [8] | IC50 [8]: 18 µM

COc1ccc(-c2cc(=O)c3c(OC)c(OC)c(OC)cc3o2)cc1OC [Sinensetin, 3′,4′,5,6,7-Pentamethoxyflavone]
alveolar bone resorption [9]: suppressed alveolar bone resorption | disease progression [10]: protects against disease progression | anti-angiogenic effect on zebrafish embryos, inhibited ([11]; listed as sinensetin): approximately 95% | anti-angiogenic effect on zebrafish embryos, inhibited [11]: 95% inhibited [47] | IC50 [12]: 24 µM | IC50 [5]: > 400 µM | oxidative stress and inflammation [13]: dose-dependently reduced | binding to BACH1 [14]: directly binds

COc1cc(-c2cc(=O)c3c(O)c(OC)c(O)c(OC)c3o2)ccc1O [Sudachitin, 4′,5,7-Trihydroxy-3′,6,8-trimethoxyflavone]
RANKL-induced osteoclast differentiation [15]: dose-dependently suppressed | production of MMP-1 and MMP-3 [16]: reduced the production

COc1cc(-c2cc(=O)c3c(OC)c(OC)c(OC)c(OC)c3o2)ccc1O [4′-Demethylnobiletin, 4′-Hydroxy-3′,5,6,7,8-Pentamethoxyflavone]
IC50 [3]: 1 µM | IC50 [8]: 13 µM | inhibitory effect on IL-1-induced osteoclast differentiation relative to nobiletin and tangeretin, respectively [8]: potent inhibitory effects

COc1cc(-c2oc3cc(O)cc(O)c3c(=O)c2O)cc(OC)c1O [Syringetin, 3,4′,5,7-Tetrahydroxy-3′,5′-dimethoxyflavone]
inhibitory effect on M-CSF-/RANKL-induced osteoclast differentiation [17]: strongest inhibitory effect

O=c1cc(-c2ccc(O)cc2)oc2cc(O)c(O)c(O)c12 [Scutellarein]
IC50 [12]: > 100 µM

COc1c(OC)c(OC)c2c(=O)cc(-c3ccc(O)cc3)oc2c1OC [4′-Demethyltangeretin, 4′-Hydroxy-5,6,7,8-Tetramethoxyflavone]
IC50 [3]: 7 µM | IC50 [8]: 18 µM | inhibitory effect on IL-1-induced osteoclast differentiation relative to nobiletin and tangeretin, respectively [8]: potent inhibitory effects

COc1ccc([C@@H]2CC(=O)c3c(O)cc(O)cc3O2)cc1O [Hesperetin, reference compound]
anti-angiogenic effect on zebrafish embryos, inhibited ([11]; listed as hesperitin): ~30% | anti-angiogenic effect on zebrafish embryos, inhibited [11]: 30% inhibited [47] | IC50 [12]: > 100 µM

COc1ccc(-c2cc(=O)c3c(OC)c(OC)c(OC)cc3o2)cc1 [Scutellarein tetra-methylether]
IC50 [12]: > 100 µM

COc1ccc(-c2oc3c(OC)c(OC)c(OC)c(OC)c3c(=O)c2O)cc1OC [Natsudaidain, 3′,4′,5,6,7,8-Hexamethoxy-3-hydroxyflavone]
IC50 [5]: 5 µM

COc1ccc(-c2oc3c(OC)c(OC)c(OC)c(OC)c3c(=O)c2OC)cc1OC [Heptamethoxyflavone, 3,3′,4′,5,6,7,8,-Heptamethoxyflavone]
IL-1β mRNA expression in the hippocampus [18]: downregulates | IC50 [5]: 63 µM | inhibition of LPS-induced bone resorption [19]: > 90% | serum TNF-α levels [20]: reduced serum TNF-α levels
